# Assay results from article PMC6547681 (Nature Communications, 2019).
# Where “and” joins values, the source holds several entries; their conditions need not be identical. Equal entries are not always repeated. Where two headings read alike, the source gives them in different places.
# Tested on: BCL-2 G101V
# Experiment: Steady-state competition SPR against immobilised BIMBH3 peptide, BCL-2 G101V
# Format: binding, human
# Settings: for Ki: BCL-2 G101V
# Protocol: SPR experiments were performed as previously described. […] The lowest concentrations used in direct binding experiments were 1 nM for BIAcore 4000 and 0.1 nM for BIAcore S200 instruments, concentrations below these were below the sensitivity thresholds for the instruments. […] Direct binding experiments were fitted to a 1:1 binding site kinetic model, fitting on and off rates, in BIAevaluation software. For competition experiments steady-state responses were determined in BIAevaluation software according to the software defaults in affinity evaluation mode averaging responses for 5 sec. […] All affinity measurements were performed in at least two independent experiments using independent protein preparations.
compound,measurement,setting,value
O=C(c1cc(-c2cc3c(cc2C(=O)N2Cc4ccccc4C[C@H]2CN2CCOCC2)OCO3)n2c1CCCC2)N(c1ccccc1)c1ccc(O)cc1 [S55746],Raw data values in Figure 3g (SPR response),"S55746 concentration 40, BCL-2 concentration 60 nM, independent experiment 2",291.594
same,Raw data values in Figure 3g (SPR response),"S55746 concentration 40, BCL-2 concentration 60 nM, independent experiment 3",48.7177
same,Raw data values in Figure 3g (SPR response),"S55746 concentration 40, BCL-2 concentration 70 nM, independent experiment 1",85.9498
same,Raw data values in Figure 3g (SPR response),"S55746 concentration 40, BCL-2 concentration 70 nM, independent experiment 2",301.246
same,Raw data values in Figure 3g (SPR response),"S55746 concentration 40, BCL-2 concentration 70 nM, independent experiment 3",49.6061
same,Raw data values in Figure 3g (SPR response),"S55746 concentration 40, BCL-2 concentration 80 nM, independent experiment 1",87.455
same,Raw data values in Figure 3g (SPR response),"S55746 concentration 40, BCL-2 concentration 80 nM, independent experiment 2",307.892
same,Raw data values in Figure 3g (SPR response),"S55746 concentration 40, BCL-2 concentration 80 nM, independent experiment 3",50.2962
same,Raw data values in Figure 3g (SPR response),"S55746 concentration 40, BCL-2 concentration 100 nM, independent experiment 1",89.2588
same,Raw data values in Figure 3g (SPR response),"S55746 concentration 40, BCL-2 concentration 100 nM, independent experiment 2",318.485
same,Raw data values in Figure 3g (SPR response),"S55746 concentration 40, BCL-2 concentration 100 nM, independent experiment 3",51.3212
same,Raw data values in Figure 3g (SPR response),"S55746 concentration 40, BCL-2 concentration 150 nM, independent experiment 1",91.8217
same,Raw data values in Figure 3g (SPR response),"S55746 concentration 40, BCL-2 concentration 150 nM, independent experiment 2",334.001
same,Raw data values in Figure 3g (SPR response),"S55746 concentration 40, BCL-2 concentration 150 nM, independent experiment 3",52.4759
same,Raw data values in Figure 3g (SPR response),"S55746 concentration 40, BCL-2 concentration 200 nM, independent experiment 1",93.5739
same,Raw data values in Figure 3g (SPR response),"S55746 concentration 40, BCL-2 concentration 250 nM, independent experiment 2",347.773
same,Raw data values in Figure 3g (SPR response),"S55746 concentration 40, BCL-2 concentration 250 nM, independent experiment 3",53.5471
same,Raw data values in Figure 3g (SPR response),"S55746 concentration 60, BCL-2 concentration 10 nM, independent experiment 1",47.4597
same,Raw data values in Figure 3g (SPR response),"S55746 concentration 60, BCL-2 concentration 10 nM, independent experiment 2",98.8052
same,Raw data values in Figure 3g (SPR response),"S55746 concentration 60, BCL-2 concentration 20 nM, independent experiment 1",62.0582
same,Raw data values in Figure 3g (SPR response),"S55746 concentration 60, BCL-2 concentration 20 nM, independent experiment 2",156.985
same,Raw data values in Figure 3g (SPR response),"S55746 concentration 60, BCL-2 concentration 30 nM, independent experiment 1",69.7854
same,Raw data values in Figure 3g (SPR response),"S55746 concentration 60, BCL-2 concentration 30 nM, independent experiment 2",196.195
same,Raw data values in Figure 3g (SPR response),"S55746 concentration 60, BCL-2 concentration 40 nM, independent experiment 1",76.161
same,Raw data values in Figure 3g (SPR response),"S55746 concentration 60, BCL-2 concentration 40 nM, independent experiment 2",224.521
same,Raw data values in Figure 3g (SPR response),"S55746 concentration 60, BCL-2 concentration 50 nM, independent experiment 1",79.3118
same,Raw data values in Figure 3g (SPR response),"S55746 concentration 60, BCL-2 concentration 50 nM, independent experiment 2",244.821
same,Raw data values in Figure 3g (SPR response),"S55746 concentration 60, BCL-2 concentration 60 nM, independent experiment 1",82.6237
same,Raw data values in Figure 3g (SPR response),"S55746 concentration 60, BCL-2 concentration 60 nM, independent experiment 2",261.933
same,Raw data values in Figure 3g (SPR response),"S55746 concentration 60, BCL-2 concentration 70 nM, independent experiment 1",84.8163
same,Raw data values in Figure 3g (SPR response),"S55746 concentration 60, BCL-2 concentration 70 nM, independent experiment 2",275.69
same,Raw data values in Figure 3g (SPR response),"S55746 concentration 60, BCL-2 concentration 80 nM, independent experiment 1",85.9361
same,Raw data values in Figure 3g (SPR response),"S55746 concentration 60, BCL-2 concentration 80 nM, independent experiment 2",286.55
same,Raw data values in Figure 3g (SPR response),"S55746 concentration 60, BCL-2 concentration 100 nM, independent experiment 1",88.8819
same,Raw data values in Figure 3g (SPR response),"S55746 concentration 60, BCL-2 concentration 100 nM, independent experiment 2",303.493
same,Raw data values in Figure 3g (SPR response),"S55746 concentration 60, BCL-2 concentration 150 nM, independent experiment 1",91.2891
same,Raw data values in Figure 3g (SPR response),"S55746 concentration 60, BCL-2 concentration 150 nM, independent experiment 2",325.735
same,Raw data values in Figure 3g (SPR response),"S55746 concentration 60, BCL-2 concentration 200 nM, independent experiment 1",93.4484
same,Raw data values in Figure 3g (SPR response),"S55746 concentration 60, BCL-2 concentration 250 nM, independent experiment 2",343.304
same,Raw data values in Figure 3g (SPR response),"S55746 concentration 80, BCL-2 concentration 10 nM, independent experiment 3",22.8907
same,Raw data values in Figure 3g (SPR response),"S55746 concentration 80, BCL-2 concentration 20 nM, independent experiment 3",32.1933
same,Raw data values in Figure 3g (SPR response),"S55746 concentration 80, BCL-2 concentration 30 nM, independent experiment 3",37.5379
same,Raw data values in Figure 3g (SPR response),"S55746 concentration 80, BCL-2 concentration 40 nM, independent experiment 3",41.1001
same,Raw data values in Figure 3g (SPR response),"S55746 concentration 80, BCL-2 concentration 50 nM, independent experiment 3",43.4737
same,Raw data values in Figure 3g (SPR response),"S55746 concentration 80, BCL-2 concentration 60 nM, independent experiment 3",45.424
same,Raw data values in Figure 3g (SPR response),"S55746 concentration 80, BCL-2 concentration 70 nM, independent experiment 3",46.908
same,Raw data values in Figure 3g (SPR response),"S55746 concentration 80, BCL-2 concentration 80 nM, independent experiment 3",48.0972
same,Raw data values in Figure 3g (SPR response),"S55746 concentration 80, BCL-2 concentration 100 nM, independent experiment 3",49.7546
same,Raw data values in Figure 3g (SPR response),"S55746 concentration 80, BCL-2 concentration 150 nM, independent experiment 3",51.7109
same,Raw data values in Figure 3g (SPR response),"S55746 concentration 80, BCL-2 concentration 250 nM, independent experiment 3",53.091
same,Ki,"read-out: S55746 KI (mean), competition vs BIMBH3 SPR surface, mean ± SD, n ≥ 2",36 nM and 35.7 nM
same,Ki,"read-out: S55746 KI, single independent experiments, independent experiments 1-3",28.4 nM and 49.8 nM and 29 nM
